Biological target: T1, human IBAT (Homo sapiens, UniProt Q12908)
T1 construct: Bases 599 to 1645 correspond to the complete coding region of human IBAT; expressed in transfected cells
T1 sequence (Q12908 1-348): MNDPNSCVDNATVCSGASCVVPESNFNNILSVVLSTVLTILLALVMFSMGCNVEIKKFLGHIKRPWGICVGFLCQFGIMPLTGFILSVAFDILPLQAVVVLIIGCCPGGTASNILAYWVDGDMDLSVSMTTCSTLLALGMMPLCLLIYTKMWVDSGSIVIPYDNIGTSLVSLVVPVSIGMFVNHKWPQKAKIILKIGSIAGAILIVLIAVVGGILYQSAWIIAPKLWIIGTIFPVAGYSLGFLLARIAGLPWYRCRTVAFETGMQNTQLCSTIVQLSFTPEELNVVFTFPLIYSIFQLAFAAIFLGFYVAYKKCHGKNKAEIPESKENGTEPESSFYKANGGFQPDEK
Assay: in vitro IBAT inhibition assay: IBAT-dependent uptake of [3H]-taurocholic acid into CHO-hIBAT cells
Type: cell-based
Settings: taurocholic acid 10 μM, 60 min at room temperature, read-out: IC-50 (human IBAT)
Description: Preparation and procedure for the in vitro IBAT inhibition assay:
1. Cloning of an Expression Vector for Human IBAT
The cDNA (complementary deoxyribonucleic acid) of human IBAT was cloned by standard methods of molecular biology as described for example in Molecular Cloning: A Laboratory Manual by Joseph Sambrook and David Russell, and introduced into the pcDNA1 vector from Invitrogen. […] Bases 599 to 1645 correspond to the complete coding region of human IBAT.
2. Preparation of a Recombinant Cell Line with Constitutive Expression of Human IBAT
The expression vector for human IBAT was introduced by stable transfection into CHO (chinese hamster ovary) cells. To select single cell clones, 400 μg/ml Geneticin was added to the cell culture medium (Ham's F12 medium supplemented with 10% fetal calf serum, 100 units/ml penicillin, 100 units/ml streptomycin). The functionality of the single cell clones resulting from the selection was assayed via their uptake activity for radiolabeled taurocholic acid ([^3H]-TCA). The cell clone with the highest uptake activity for [^3H]-TCA, referred to hereinafter as CHO-hIBAT, was selected for the further assays and further cultured in the presence of 400 μg/ml Geneticin.
3. Measurement of the Inhibitory Effect of the Compound of the Invention on the IBAT-Dependent Uptake of Taurocholic Acid into Cells
CHO-hIBAT cells were seeded in a concentration of 40 000 cells per well in poly-D-lysine-coated 96-well plates in cell culture medium and cultured for 24 h. The cells were then washed once with sodium-free transport assay buffer (140 mM choline chloride, 2 mM potassium chloride, 1 mM magnesium chloride, 1 mM calcium chloride, 10 mM HEPES/Tris, pH 7.5) and subsequently incubated either with sodium-free transport assay buffer as negative control or with sodium-containing transport assay buffer (140 mM sodium chloride, 2 mM potassium chloride, 1 mM magnesium chloride, 1 mM calcium chloride, 10 mM HEPES/Tris, pH 7.5) as positive control at room temperature for 30 min. At the same time, the assay wells were also incubated in the presence of the compound to be investigated in varying concentration in sodium-containing transport assay buffer at room temperature for 30 min. The test substances were appropriately diluted in transport assay buffer (40 μl/well) starting from a 10 mM stock solution in dimethyl sulfoxide. The assay was then started by adding 10 μl/well of a mixture of radiolabeled taurocholic acid ([^3H]-TCA) and unlabeled taurocholic acid. The final concentration of taurocholic acid in the assay was 10 μM. After an incubation time of 60 min at room temperature, the reaction was stopped by adding 100 μl/well sodium-free transport assay buffer (4° C.), and each well was washed three times with sodium-free transport assay buffer. Finally, 100 μl of scintillation fluid were added to each well, and the radioactivity taken up into the cells was determined in a MicroBeta Scintillation Microplate Reader from Wallac.
The half-maximum inhibitory effect of the test compound (IC50 value, inhibitory concentration 50) was determined in the following way: • 1. Determination of the value for 0% inhibition. This is the measurement in the absence of substance, measured in sodium-containing transport assay buffer. • 2. Determination of the value for 100% inhibition. This is the measurement in the absence of substance, measured in sodium-free transport assay buffer. • 3. […]

IC50	SMILES
6.5 nM	CCCC[C@]1(CC)CS(=O)(=O)c2ccc(N(C)C)cc2[C@@H](c2cccc(NC(=O)N[C@@H]3O[C@H](CO)[C@@H](F)[C@H](O)[C@H]3O)c2)[C@H]1O [Example 1]
3.9 nM	CCCC[C@]1(CC)CS(=O)(=O)c2ccc(N(C)C)cc2[C@@H](c2cccc(NC(=O)N[C@@H]3O[C@H](COS(=O)(=O)O)[C@@H](F)[C@H](O)[C@H]3O)c2)[C@H]1O [Example 2]
5.3 nM	CCCC[C@]1(CC)CS(=O)(=O)c2ccc(N(C)C)cc2[C@@H](c2cccc(NC(=O)N[C@@H]3O[C@H](CO)C(F)(F)[C@H](O)[C@H]3O)c2)[C@H]1O [Example 3]
3.6 nM	CCCC[C@]1(CC)CS(=O)(=O)c2ccc(N(C)C)cc2[C@@H](c2cccc(NC(=O)N[C@@H]3O[C@H](COS(=O)(=O)O)C(F)(F)[C@H](O)[C@H]3O)c2)[C@H]1O [Example 4]
5.6 nM	CCCC[C@]1(CC)CS(=O)(=O)c2ccc(N(C)C)cc2[C@@H](c2cccc(NC(=O)N[C@@H]3O[C@H](CS(=O)(=O)O)[C@@H](F)[C@H](O)[C@H]3O)c2)[C@H]1O [Example 5]
